# Assay results as given in patent US9233086B2 (THE REGENTS OF THE UNIVERSITY OF MICHIGAN, priority 2010, dated 2016).
# Where a SMILES comes first, the peptide text is derived from it. [ ]: non-standard residue; d: D form. The star is where a group is joined. NHPhenethyl = c1ccc(CCN*)cc1; Isovaleryl = CC(C)CC(=O)*; Isobutyryl = CC(C)C(=O)*; Deg = CCC(N)(CC)C(=O)O; Pentanoyl = CCCCC(=O)*; NHBn = c1ccc(CN*)cc1; Bz = O=C(c1ccccc1)*; NHPh = c1ccc(N*)cc1
# Target: WDR5 (Homo sapiens (Human), UniProt P61964)
# Experiment: FP based competitive binding assay to WDR5
# Conditions: 4 nM WDR5Δ23, 0.6 nM 10mer-Thr-FAM tracer; Ki calculated by equation of ref. 31; read-out: Ki ± SD
# Method: Another aspect of the invention is development of a Fluorescent Polarization (FP) based competitive binding assay. […] Next, the millipolarization (mP) values were measured at different time points in order to determine equilibrium duration and stability.
# Accordingly, the optimal protein concentrations for the competitive assay was investigated.
# All the FP based experiments were performed in MICROFLUOR® 2 Black, “U” Bottom, 96-well Microtiter Plates (ThermoSci.) and FP was measured as mP units in a microplate reader (Tecan Ultra) with excitation at 485 nm and emission at 530 nm. The Kd of the tracers and the IC50 value of the inhibitors were calculated using GraphPad Prism 4 software.
# The binding affinities of the synthetic peptides shown in the study were measured using this competitive binding assay. A pre-incubated complex solution of WDR5Δ23 and the tracer in 120 μl assay buffer were added to dilutions of the test compound in 5 μl DMSO, giving final concentrations of WDR5Δ23 and the tracer of 4 nM and 0.6 nM, respectively. […] The plates were incubated with shaking at room temperature. The mP values were measured after five hours of incubation and Ki values were calculated using the equation described previously(31).
row,Ki,Molecule
1,1600 ± 200 nM,"COC(=O)[C@H](C)NC(=O)[C@H](CCCNC(=N)N)NC(=O)[C@H](C)NC(C)=O [Δ2c, Ac-ARA-COOCH3] (Ac-Ala-Arg-Ala-OMe)"
2,15600 ± 1200 nM,"C[C@H](N)C(=O)N[C@@H](CCCNC(=N)N)C(=O)N[C@H](C(=O)N[C@@H](CCCC[N+](C)(C)C)C(=O)N[C@@H](CCC(N)=O)C(=O)N[C@H](C(=O)N[C@@H](C)C(=O)N[C@@H](CCCNC(=N)N)C(=O)N[C@@H](CCCCN)C(=O)N[C@@H](CO)C(N)=O)[C@@H](C)O)[C@@H](C)O [L3-10mer-K4Me3, H2N-ARTK(Me3)QTARKS-NH2, reference compound]"
3,120 ± 10 nM,"CC(=O)N[C@@H](C)C(=O)N[C@@H](CCCNC(=N)N)C(=O)N[C@@H](C)C(N)=O [Ac-3mer, Ac-ARA-NH2] (Ac-Ala-Arg-Ala-NH2)"

# Same assay, conditions: 4 nM WDR5Δ23, 0.6 nM 10mer-Thr-FAM tracer; read-out: IC50 ± SD
row,IC50,Molecule
1,7300 ± 800 nM,"COC(=O)[C@H](C)NC(=O)[C@H](CCCNC(=N)N)NC(=O)[C@H](C)NC(C)=O [Δ2c, Ac-ARA-COOCH3] (Ac-Ala-Arg-Ala-OMe)"
2,73000 ± 6000 nM,"C[C@H](N)C(=O)N[C@@H](CCCNC(=N)N)C(=O)N[C@H](C(=O)N[C@@H](CCCC[N+](C)(C)C)C(=O)N[C@@H](CCC(N)=O)C(=O)N[C@H](C(=O)N[C@@H](C)C(=O)N[C@@H](CCCNC(=N)N)C(=O)N[C@@H](CCCCN)C(=O)N[C@@H](CO)C(N)=O)[C@@H](C)O)[C@@H](C)O [L3-10mer-K4Me3, H2N-ARTK(Me3)QTARKS-NH2, reference compound]"
3,20 ± 4 nM,CC(=O)N[C@@H](C)C(=O)N[C@@H](CCCNC(=N)N)C(=O)N[C@@H](C)C(=O)N[C@@H](CCC(=O)O)C(=O)N[C@H](C(=O)N[C@@H](Cc1c[nH]cn1)C(=O)N[C@@H](CC(C)C)C(=O)N[C@@H](CCCNC(=N)N)C(=O)N[C@@H](CCCCN)C(=O)N[C@@H](CO)C(N)=O)C(C)C [Ac-10mer]
4,540 ± 30 nM,"CC(=O)N[C@@H](C)C(=O)N[C@@H](CCCNC(=N)N)C(=O)N[C@@H](C)C(N)=O [Ac-3mer, Ac-ARA-NH2] (Ac-Ala-Arg-Ala-NH2)"

# Same assay, conditions: Ki ratio vs WIN
row,times more potent than the WIN peptide,Molecule
1,50,CC(=O)N[C@@H](C)C(=O)N[C@@H](CCCNC(=N)N)C(=O)N[C@@H](C)C(=O)N[C@@H](CCC(=O)O)C(=O)N[C@H](C(=O)N[C@@H](Cc1c[nH]cn1)C(=O)N[C@@H](CC(C)C)C(=O)N[C@@H](CCCNC(=N)N)C(=O)N[C@@H](CCCCN)C(=O)N[C@@H](CO)C(N)=O)C(C)C [Ac-10mer]

# Same assay, conditions: ratio vs Ac-3mer
row,times less potent than Ac-3mer,Molecule
1,10,"COC(=O)[C@H](C)NC(=O)[C@H](CCCNC(=N)N)NC(=O)[C@H](C)NC(C)=O [Δ2c, Ac-ARA-COOCH3] (Ac-Ala-Arg-Ala-OMe)"

# Same assay, conditions: ratio vs Ac-10mer
row,fold decrease of binding affinity relative to Ac-10mer,Molecule
1,1500,Ac-RAEVHLRKS-NH2 [Ac-9mer]

# Same assay, conditions: read-out: Binding Affinity to WDR5 (IC50 ± SD); Table 5 peptidomimetics
row,Molecule,IC50
1,CC(=O)N[C@@H](C)C(=O)N[C@@H](CCCCN)C(=O)N[C@@H](C)C(N)=O [Compound 2C] (Ac-Ala-Lys-Ala-NH2),> 1000 nM
2,CC(=O)N[C@H](C(=O)N[C@@H](CCCNC(=N)N)C(=O)NC1(C(N)=O)CC1)C(C)C [Compound 5A],< 10000 nM
3,CC(=O)N[C@H](C(=O)N[C@@H](CCCNC(=N)N)C(=O)NC1(C(N)=O)CCC1)C(C)C [Compound 5B],< 10000 nM
4,CC(=O)NC(C)(C)C(=O)N[C@@H](CCCNC(=N)N)C(=O)NC1(C(N)=O)CCCC1 [Compound 6B],< 1000 nM
5,CC(=O)NC1(C(=O)N[C@@H](CCCNC(=N)N)C(=O)N[C@H](C(N)=O)C(C)C)CCCC1 [Compound 4C],< 1000 nM
6,CC(=O)N[C@@H](C)C(=O)N[C@@H](CCCN)C(=O)N[C@@H](C)C(N)=O [Compound 2B],> 1000 nM
7,CC(=O)NC1(C(=O)N[C@@H](CCCNC(=N)N)C(=O)N[C@H](C(N)=O)C(C)C)CC1 [Compound 4A],< 1000 nM
8,CC(=O)NC1(C(=O)N[C@@H](CCCNC(=N)N)C(=O)N[C@H](C(N)=O)C(C)C)CCCCC1 [Compound 4D],< 1000 nM
9,CC[C@H](NC(=O)[C@H](CCCNC(=N)N)NC(=O)C(C)(C)NC(C)=O)C(N)=O [Compound 6A],< 1000 nM
10,CC(=O)N[C@@H](C)C(=O)N[C@@H](CCCNC(=N)N)C(=O)N[C@H](C(N)=O)[C@@H](C)O [Compound 3I] (Ac-Ala-Arg-Thr-NH2),< 1000 nM
11,CCCC[C@H](NC(=O)[C@H](C)NC(C)=O)C(=O)N[C@@H](C)C(N)=O [Compound 2A],> 1000 nM

# Now from value to molecule:
row,IC50,Molecule
1,> 5000 nM,CCC(CC)(NC(=O)c1ccccc1)C(=O)N[C@H](CCCNC(=N)N)C(=O)NC1(C(N)=O)CCCC1 [Compound 10F]
2,< 3000 nM,CC[C@H](NC(=O)[C@H](CCCNC(=N)N)NC(=O)C(CC)(CC)NC(=O)C(C)C)c1ccccc1 [Compound 11K]
3,> 1000 nM,C[C@H](NC(=O)[C@H](CCCNC(=N)N)NC(=O)[C@H](C)NC(=O)c1ccccc1)C(N)=O [Compound 9H] (Bz-Ala-Arg-Ala-NH2)
4,< 10000 nM,CCC(CC)(NC(=O)C(C)C)C(=O)N[C@@H](CCCNC(=N)N)C(=O)NCCCCc1ccccc1 [Compound 11N]
5,< 10000 nM,CCC(CC)(NC(=O)C(C)C)C(=O)N[C@@H](CCCNC(=N)N)C(=O)NC(C(C)C)C(C)C [Compound 11J]
6,> 1000 nM,CCC(CC)(NC(=O)C(C)C)C(=O)N[C@@H](CCCNC(=N)N(C)C)C(=O)NC1(C(N)=O)CCCC1 [Compound 10G]
7,< 1000 nM,CCC(CC)(NC(=O)C(C)C)C(=O)N[C@@H](CCCNC(=N)N)C(=O)NC1(C(N)=O)CCCC1 [Compound 10C]
8,< 1000 nM,CC(C)C(=O)NC1(C(=O)N[C@@H](CCCNC(=N)N)C(=O)NC2(C(=O)NC(c3ccccc3)c3ccccc3)CCCC2)CCC1 [Compound 10B]
9,> 1000 nM,CCC(CC)(NC(=O)C(C)C)C(=O)N[C@@H](CCCNC(=N)N)C(=O)NCCCc1ccccc1 [Compound 11M]
10,< 3000 nM,CC[C@H](C)NC(=O)[C@H](CCCNC(=N)N)NC(=O)C(CC)(CC)NC(=O)C(C)C [Compound 11A]
11,> 10000 nM,CCCCC(=O)N[C@@H](C)C(=O)N[C@@H](CCCNC(=N)N)C(=O)N[C@@H](C)C(N)=O [Compound 9D] (Pentanoyl-Ala-Arg-Ala-NH2)
12,> 10000 nM,CCC(CC)(NC(=O)C(C)C)C(=O)N[C@@H](CCCNC(=N)N)C(=O)NCCc1ccccc1 [Compound 11L] (Isobutyryl-[Deg]-Arg-NHPhenethyl)
13,< 20000 nM,CCC(CC)(NC(=O)C(C)C)C(=O)N[C@H](CCCNC(=N)N)C(=O)NC1(C(N)=O)CCCC1 [Compound 10D]
14,< 1000 nM,CC[C@H](NC(=O)[C@H](CCCNC(=N)N)NC(=O)C1(NC(C)=O)CCC1)C(=O)NC(c1ccccc1)c1ccccc1 [Compound 8B]
15,< 10000 nM,C[C@H](NC(=O)[C@H](CCCNC(=N)N)NC(=O)[C@H](C)NC(=O)C1CCC1)C(N)=O [Compound 9F]
16,> 1000 nM,C[C@H](NC(=O)[C@H](CCCNC(=N)N)NC(=O)[C@H](C)NC(=O)CC1CCCC1)C(N)=O [Compound 9G]
17,< 10000 nM,CCC(CC)(NC(=O)C(C)C)C(=O)N[C@@H](CCCNC(=N)N)C(=O)NC1CCCCC1 [Compound 11E]
18,< 10000 nM,CCC(CC)(NC(=O)C(C)C)C(=O)N[C@@H](CCCNC(=N)N)C(=O)Nc1ccccc1 [Compound 11C] (Isobutyryl-[Deg]-Arg-NHPh)
19,> 10000 nM,CC(C)CC(=O)N[C@@H](C)C(=O)N[C@@H](CCCNC(=N)N)C(=O)N[C@@H](C)C(N)=O [Compound 9B] (Isovaleryl-Ala-Arg-Ala-NH2)
20,< 30000 nM,CCC(CC)(NC(=O)C(C)C)C(=O)N[C@@H](CCCNC(=N)N)C(=O)NCc1ccccc1 [Compound 11D] (Isobutyryl-[Deg]-Arg-NHBn)

# Same assay, conditions: read-out: Ki
row,Ki,Molecule
1,3 nM,CC(=O)N[C@@H](C)C(=O)N[C@@H](CCCNC(=N)N)C(=O)N[C@@H](C)C(=O)N[C@@H](CCC(=O)O)C(=O)N[C@H](C(=O)N[C@@H](Cc1c[nH]cn1)C(=O)N[C@@H](CC(C)C)C(=O)N[C@@H](CCCNC(=N)N)C(=O)N[C@@H](CCCCN)C(=O)N[C@@H](CO)C(N)=O)C(C)C [Ac-10mer]
